According to patent US20090246276A1, “Pharmaceutical Compositions” (priority 2008, published 2009):
Counter-ions that a name gives are not always drawn.

Test: In-vitro dissolution, 900 ml medium (0.1N HCl, pH 4.5 acetate buffer, pH 6.8 or pH 7.5 phosphate buffer), USP Apparatus 1, 75 rpm, 37° C.
Format: physicochemical
Settings: for % Released (Bi-layer Tablets): Example 16 coated bi-layer tablet; for % Released (Homogenous Tablets): Example 19 tablet
Protocol: The dissolution profile of the above pharmaceutical composition was determined under the dissolution conditions described below in Tables 1A, 1B, and 1C.

In the case of `CN(C)CCC[C@@]1(c2ccc(F)cc2)OCc2cc(C#N)ccc21` [Escitalopram Ox, escitalopram oxalate], the “% Released” value (Example 2 tablet, 0.1N HCl, 1 hr) was 15%, the “% Released” value (Example 2 tablet, 0.1N HCl, 2 hr) was 35% and the “% Released” value (Example 2 tablet, 0.1N HCl, 4 hr) was 68%. The “% Released” value (Example 2 tablet, 0.1N HCl, 8 hr) was 99%, the “% Released” value (Example 2 tablet, 0.1N HCl, 12 hr) was 102% and the “% Released” value (Example 2 tablet, 0.1N HCl, 16 hr) was 101%. The “% Released” value (Example 2 tablet, pH 4.5 acetate buffer, 1 hr) was 15%, the “% Released” value (Example 2 tablet, pH 4.5 acetate buffer, 2 hr) was 35% and the “% Released” value (Example 2 tablet, pH 4.5 acetate buffer, 4 hr) was 64%. The “% Released” value (Example 2 tablet, pH 4.5 acetate buffer, 8 hr) was 97%, the “% Released” value (Example 2 tablet, pH 4.5 acetate buffer, 12 hr) was 101% and the “% Released” value (Example 2 tablet, pH 4.5 acetate buffer, 16 hr) was 100%. The “% Released” value (Example 2 tablet, pH 6.8 phosphate buffer, 1 hr) was 14%, the “% Released” value (Example 2 tablet, pH 6.8 phosphate buffer, 2 hr) was 33% and the “% Released” value (Example 2 tablet, pH 6.8 phosphate buffer, 4 hr) was 61%. The “% Released” value (Example 2 tablet, pH 6.8 phosphate buffer, 8 hr) was 92%, the “% Released” value (Example 2 tablet, pH 6.8 phosphate buffer, 12 hr) was 96% and the “% Released” value (Example 2 tablet, pH 6.8 phosphate buffer, 16 hr) was 96%. The “% Released” value (Example 3 tablet, 0.1N HCl, 1 hr) was 14%, the “% Released” value (Example 3 tablet, 0.1N HCl, 2 hr) was 32% and the “% Released” value (Example 3 tablet, 0.1N HCl, 4 hr) was 63%. For the same compound, the “% Released” value (Example 3 tablet, 0.1N HCl, 8 hr) was 102%, the “% Released” value (Example 3 tablet, 0.1N HCl, 12 hr) was 106% and the “% Released” value (Example 3 tablet, 0.1N HCl, 16 hr) was 105%. For the same compound, the “% Released” value (Example 3 tablet, pH 4.5 acetate buffer, 1 hr) was 13%, the “% Released” value (Example 3 tablet, pH 4.5 acetate buffer, 2 hr) was 29% and the “% Released” value (Example 3 tablet, pH 4.5 acetate buffer, 4 hr) was 57%. The “% Released” value (Example 3 tablet, pH 4.5 acetate buffer, 8 hr) was 96%, the “% Released” value (Example 3 tablet, pH 4.5 acetate buffer, 12 hr) was 102% and the “% Released” value (Example 3 tablet, pH 4.5 acetate buffer, 16 hr) was 101%. The “% Released” value (Example 3 tablet, pH 6.8 phosphate buffer, 1 hr) was 13%, the “% Released” value (Example 3 tablet, pH 6.8 phosphate buffer, 2 hr) was 29% and the “% Released” value (Example 3 tablet, pH 6.8 phosphate buffer, 4 hr) was 59%. The “% Released” value (Example 3 tablet, pH 6.8 phosphate buffer, 8 hr) was 99%, the “% Released” value (Example 3 tablet, pH 6.8 phosphate buffer, 12 hr) was 104% and the “% Released” value (Example 3 tablet, pH 6.8 phosphate buffer, 16 hr) was 104%. For the same compound, the “% Released” value (Example 5 tablet, 0.1N HCl, 1 hr) was 13%, the “% Released” value (Example 5 tablet, 0.1N HCl, 2 hr) was 26% and the “% Released” value (Example 5 tablet, 0.1N HCl, 4 hr) was 49%. For the same compound, the “% Released” value (Example 5 tablet, 0.1N HCl, 8 hr) was 81%, the “% Released” value (Example 5 tablet, 0.1N HCl, 12 hr) was 97% and the “% Released” value (Example 5 tablet, 0.1N HCl, 16 hr) was 98%. The “% Released” value (Example 6 tablet, 0.1N HCl, 1 hr) was 16%, the “% Released” value (Example 6 tablet, 0.1N HCl, 2 hr) was 34% and the “% Released” value (Example 6 tablet, 0.1N HCl, 4 hr) was 63%. For the same compound, the “% Released” value (Example 6 tablet, 0.1N HCl, 8 hr) was 97%, the “% Released” value (Example 6 tablet, 0.1N HCl, 12 hr) was 100% and the “% Released” value (Example 6 tablet, 0.1N HCl, 16 hr) was 100%. For the same compound, the “% Released” value (Example 7 tablet, 0.1N HCl, 1 hr) was 2%, the “% Released” value (Example 7 tablet, 0.1N HCl, 2 hr) was 7% and the “% Released” value (Example 7 tablet, 0.1N HCl, 4 hr) was 19%. For the same compound, the “% Released” value (Example 7 tablet, 0.1N HCl, 8 hr) was 44%, the “% Released” value (Example 7 tablet, 0.1N HCl, 12 hr) was 63% and the “% Released” value (Example 7 tablet, 0.1N HCl, 16 hr) was 77%. The “% Released” value (Example 8 tablet, 0.1N HCl, 1 hr) was 0%, the “% Released” value (Example 8 tablet, 0.1N HCl, 2 hr) was 1% and the “% Released” value (Example 8 tablet, 0.1N HCl, 4 hr) was 6%. The “% Released” value (Example 8 tablet, 0.1N HCl, 8 hr) was 19%, the “% Released” value (Example 8 tablet, 0.1N HCl, 12 hr) was 31% and the “% Released” value (Example 8 tablet, 0.1N HCl, 16 hr) was 40%. For the same compound, the “% Released” value (Example 9 tablet, 0.1N HCl, 1 hr) was 17%, the “% Released” value (Example 9 tablet, 0.1N HCl, 2 hr) was 48% and the “% Released” value (Example 9 tablet, 0.1N HCl, 3 hr) was 74%. For the same compound, the “% Released” value (Example 9 tablet, 0.1N HCl, 4 hr) was 93%, the “% Released” value (Example 9 tablet, 0.1N HCl, 6 hr) was 104% and the “% Released” value (Example 9 tablet, 0.1N HCl, 8 hr) was 103%. For the same compound, the “% Released” value (Example 9 tablet, 0.1N HCl, 10 hr) was 103%, the “% Released” value (Example 10 tablet, 0.1N HCl, 1 hr) was 14% and the “% Released” value (Example 10 tablet, 0.1N HCl, 2 hr) was 32%. For the same compound, the “% Released” value (Example 10 tablet, 0.1N HCl, 4 hr) was 59%, the “% Released” value (Example 10 tablet, 0.1N HCl, 8 hr) was 94% and the “% Released” value (Example 10 tablet, 0.1N HCl, 12 hr) was 99%. The “% Released” value (Example 10 tablet, 0.1N HCl, 16 hr) was 99%, the “% Released” value (Example 11 tablet, 0.1N HCl, 1 hr) was 16% and the “% Released” value (Example 11 tablet, 0.1N HCl, 2 hr) was 33%. For the same compound, the “% Released” value (Example 11 tablet, 0.1N HCl, 4 hr) was 56%, the “% Released” value (Example 11 tablet, 0.1N HCl, 8 hr) was 88% and the “% Released” value (Example 11 tablet, 0.1N HCl, 12 hr) was 97%. The “% Released” value (Example 11 tablet, 0.1N HCl, 16 hr) was 97%, the “% Released” value (Example 12 tablet, 0.1N HCl, 1 hr) was 8% and the “% Released” value (Example 12 tablet, 0.1N HCl, 2 hr) was 29%. The “% Released” value (Example 12 tablet, 0.1N HCl, 3 hr) was 47%, the “% Released” value (Example 12 tablet, 0.1N HCl, 4 hr) was 63% and the “% Released” value (Example 12 tablet, 0.1N HCl, 5 hr) was 77%. For the same compound, the “% Released” value (Example 12 tablet, 0.1N HCl, 6 hr) was 92%, the “% Released” value (Example 12 tablet, 0.1N HCl, 7 hr) was 98% and the “% Released” value (Example 12 tablet, 0.1N HCl, 8 hr) was 102%. The “% Released” value (Example 13 tablet, 0.1N HCl, 1 hr) was 9%, the “% Released” value (Example 13 tablet, 0.1N HCl, 2 hr) was 28% and the “% Released” value (Example 13 tablet, 0.1N HCl, 3 hr) was 45%. For the same compound, the “% Released” value (Example 13 tablet, 0.1N HCl, 4 hr) was 60%, the “% Released” value (Example 13 tablet, 0.1N HCl, 6 hr) was 83% and the “% Released” value (Example 13 tablet, 0.1N HCl, 8 hr) was 96%. For the same compound, the “% Released” value (Example 13 tablet, 0.1N HCl, 10 hr) was 99%, the “% Released” value (Example 13 tablet, 0.1N HCl, 12 hr) was 100% and the “% Released” value (Example 13 tablet, 0.1N HCl, 16 hr) was 100%. For the same compound, the “% Released” value (Example 14 tablet, 0.1N HCl, 4 hr) was 56%, the “% Released” value (Example 14 tablet, 0.1N HCl, 6 hr) was 76% and the “% Released” value (Example 14 tablet, 0.1N HCl, 8 hr) was 92%. For the same compound, the “% Released” value (Example 14 tablet, 0.1N HCl, 10 hr) was 99%, the “% Released (Bi-layer Tablets)” value (0.1N HCl, 1 hr) was 9.47% and the “% Released (Bi-layer Tablets)” value (0.1N HCl, 2 hr) was 27.06%. For the same compound, the “% Released (Bi-layer Tablets)” value (0.1N HCl, 3 hr) was 45.32%, the “% Released (Bi-layer Tablets)” value (0.1N HCl, 4 hr) was 60.81% and the “% Released (Bi-layer Tablets)” value (0.1N HCl, 5 hr) was 74.22%. For the same compound, the “% Released (Bi-layer Tablets)” value (0.1N HCl, 6 hr) was 83.48%, the “% Released (Bi-layer Tablets)” value (0.1N HCl, 7 hr) was 90.11% and the “% Released (Bi-layer Tablets)” value (0.1N HCl, 8 hr) was 93.47%. The “% Released (Homogenous Tablets)” value (0.1N HCl, 1 hr) was 16.65%, the “% Released (Homogenous Tablets)” value (0.1N HCl, 2 hr) was 40.32% and the “% Released (Homogenous Tablets)” value (0.1N HCl, 3 hr) was 59.61%. The “% Released (Homogenous Tablets)” value (0.1N HCl, 4 hr) was 75.31%, the “% Released (Homogenous Tablets)” value (0.1N HCl, 5 hr) was 86.68% and the “% Released (Homogenous Tablets)” value (0.1N HCl, 6 hr) was 94.46%. For the same compound, the “% Released (Homogenous Tablets)” value (0.1N HCl, 7 hr) was 99.30% and the “% Released (Homogenous Tablets)” value (0.1N HCl, 8 hr) was 101.01%.
